Measured values as given in patent US20250230138A1, “COMPOUNDS HAVING A T-STRUCTURE FORMED BY AT LEAST FOUR CYCLES FOR USE IN THE TREATMENT OF CANCER AND OTHER INDICATIONS” (TheRas, Inc., priority 2022, published 2025).
Like-named read-outs stand apart in the source and are kept apart here.

How the values were obtained:
pAKT in BT474 cells = assay: Cell-based pAKT HTRF assay in BT474 cells; conditions: BT474 cells, 4 hr incubation, read-out: pAKT inhibition IC50 in BT474 cells
Outline: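 BT474 cells in DMEM/10% FBS were treated the day after seeding with a 9-point, 3-fold compound series from 3 μM (0.25% DMSO) for 4 hr. Lysates were mixed with d2 and Eu cryptate anti-pAKT antibodies and incubated 4-24 h at room temperature. HTRF was read with excitation at 320 nm and emission at 615 nm.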

[1] = target: Cys242 in human PIK3CA (157-299) (Homo sapiens (Human), UniProt P42336); assay: Covalent modification assay using MALDI-TOF MS; type: biochemical; conditions: 4 h reaction time point
Sequence of Cys242 in human PIK3CA (157-299) (P42336 157-299): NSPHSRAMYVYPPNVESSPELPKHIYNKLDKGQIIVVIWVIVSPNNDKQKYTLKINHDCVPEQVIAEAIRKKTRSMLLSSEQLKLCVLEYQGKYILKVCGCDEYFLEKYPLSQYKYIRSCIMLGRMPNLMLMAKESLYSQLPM
Outline: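 PIK3CA (157-299), 3.33 or 1 μM in 20 mM HEPES, 150 mM NaCl, 2 mM MgCl2, pH 7.3, was incubated with compound at room temperature in the dark for 15 min, 30 min, 2 h or 4 h. Linear MALDI-TOF read-out; % modification = adduct peak height over summed heights of all protein species.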

[2] = 1 μM protein target, 1:5 protein to compound ratio (compounds 853-1279)
[3] = 3.33 μM protein target, 1:7.5 protein to compound ratio (compounds 1-852)
[4] = Homo sapiens, BT-474, Compounds 10-999

Compound	IC50 (pAKT in BT474 cells; Compounds 1000-1279)	IC50 (pAKT in BT474 cells; Compounds 10-999)	IC50 (pAKT in BT474 cells; [4])	% of modification [1, 2]	% of modification [1, 3]
C=CC(=O)N1CCn2nc(-c3nc(-c4cccc(=O)n4C)c4ccsc4c3-c3c(F)cc(F)cc3OCCOC)cc2C1C (stereo not drawn) [Compound 1020]	< 100 nM			A (percent of modification of PIK3CA protein ≥75%)	
C=CC(=O)N1Cc2cc(-c3nc(-c4ccc5[nH]cnc5c4)c4ccsc4c3-c3c(F)cc(F)cc3OCCOC)nn2C[C@H]1C [Compound 720]		< 100 nM			A (percent of modification of PIK3CA protein ≥75%)
C=CC(=O)N1Cc2cc(-c3nc(-c4cnnc(C)c4)c4ccsc4c3-c3c(F)cc(F)cc3OCCO)nn2CC1C (stereo not drawn) [Compound 829]		< 100 nM			A (percent of modification of PIK3CA protein ≥75%)
C=C(F)C(=O)N1CCn2nc(-c3nc(-c4cnc5c(c4)CNC5=O)c4ccsc4c3-c3c(F)cc(F)cc3OC(C)C)cc2C1 [Compound 356]		< 100 nM			A (percent of modification of PIK3CA protein ≥75%)
C=CC(=O)N1CCc2nc(-c3nc(-c4ccc5c(c4)CCNC5)c4ccsc4c3-c3ccc(F)cc3OCC3CCNC(=O)C3)sc2C1 (stereo not drawn) [Compound 182]		< 100 nM			A (percent of modification of PIK3CA protein ≥75%)
C=CC(=O)N1CCc2ccc(-c3nc(-c4ccc5c(c4)CN(CCO)CC5(F)F)c4ccsc4c3-c3c(F)cc(F)cc3OCCOC)cc2C1 [Compound 1273]	> 1000 nM			D (percent of modification <25%)	
C=CC(=O)N1CCc2nc(-c3nc(-c4cccc(C(C)(C)C#N)c4)c4ccsc4c3-c3c(F)cc(F)cc3OCCOC)sc2C1 [Compound 440]		100 to 1000 nM			D (percent of modification <25%)
C=CC(=O)N1CC(n2cc(-c3nc(-c4cnn(C)c4)c4ccsc4c3-c3ccc(F)cc3OC)cn2)C1 [Compound 76]		< 100 nM			A (percent of modification of PIK3CA protein ≥75%)
C=CC(=O)N1CCn2nc(-c3nc(-c4ccc5cnn(C)c(=O)c5c4)c4ccsc4c3-c3c(F)cc(F)cc3OCCO)cc2[C@H]1C [Compound 899]		< 100 nM		A (percent of modification of PIK3CA protein ≥75%)	
C=CC(=O)N1CCn2nc(-c3nc(-c4cnn(C5CN(C)C5)c4)c4ccsc4c3-c3c(F)cc(F)cc3OCC(C)O)cc2C1C (stereo not drawn) [Compound 992]		< 100 nM		A (percent of modification of PIK3CA protein ≥75%)	
C=CC(=O)N1CCc2ncc(-c3nc(-c4ccc5c(c4)C(O)CC5)c4ccsc4c3-c3c(F)cc(F)cc3OC(C)C)cc2C1 (stereo not drawn) [Compound 384]		< 100 nM			A (percent of modification of PIK3CA protein ≥75%)
C=CC(=O)N1CCn2nc(-c3nc(-c4cnc5c(c4)CN(C)CC54CC4)c4ccsc4c3-c3c(F)cc(F)cc3OCCOC)cc2[C@H]1C [Compound 1163]	< 100 nM			A (percent of modification of PIK3CA protein ≥75%)	
C=CC(=O)N1CCn2nc(-c3nc(-c4cnn(C)c4)c4ccsc4c3-c3c(F)cc(F)cc3OCCO)cc2C1C (stereo not drawn) [Compound 532]		< 100 nM			A (percent of modification of PIK3CA protein ≥75%)
C=CC(=O)N1CCn2nc(-c3nc(-c4cnc5c(c4)CN(C)CC5)c4ccsc4c3-c3ccc(F)cc3OC)cc2C1 [Compound 288]		< 100 nM			A (percent of modification of PIK3CA protein ≥75%)
C=CC(=O)N1Cc2cc(-c3nc(-c4ncn(C)n4)c4ccsc4c3-c3c(F)cc(F)cc3OCCOC)nn2CC1C (stereo not drawn) [Compound 851]		< 100 nM			A (percent of modification of PIK3CA protein ≥75%)
CC(C)Oc1cc(F)ccc1-c1c(-c2cc3n(n2)CCN(C(=O)/C=C/CN(C)C)C3)nc(-c2ccc3c(c2)CCNC3=O)c2ccsc12 [Compound 285]		100 to 1000 nM			B (50%<percent of modification <75%)
C=CC(=O)N1CCc2nc(-c3nc(-c4cnc5c(c4)CN(C)CC5)c4ccsc4c3-c3c(F)cc(F)cc3OCCOC)sc2C1 [Compound 365]		< 100 nM			A (percent of modification of PIK3CA protein ≥75%)
C=CC(=O)N1CCn2nc(-c3nc(-c4ccc(OC5CN(C)C5)cc4)c4ccsc4c3-c3c(F)cc(F)cc3OCCO)cc2C1C (stereo not drawn) [Compound 1198]	< 100 nM			A (percent of modification of PIK3CA protein ≥75%)	
C=CC(=O)N1CCc2ncc(-c3nc(-c4cncc(C#N)c4)c4ccsc4c3-c3c(F)cc(F)cc3OCCOC)cc2C1 [Compound 376]		< 100 nM			A (percent of modification of PIK3CA protein ≥75%)
C=CC(=O)N1CC[C@H](n2cc(-c3nc(-c4ccc5c(c4)CNC5=O)c4ccsc4c3-c3c(F)cc(F)cc3OC(C)C)cn2)C1 [Compound 334, 5-[7-(2,4-difluoro-6-isopropoxy-phenyl)-6-[1-[(3S)-1-prop-2-enoylpyrrolidin-3-yl]pyrazol-4-yl]thieno[3,2-c]pyridin-4-yl]isoindolin-1-one]			< 100 nM		A (percent of modification of PIK3CA protein ≥75%)
C=CC(=O)N1CCn2nc(-c3nc(-c4cn(C)cn4)c4ccsc4c3-c3c(F)cc(F)cc3OCC(C)O)cc2C1C (stereo not drawn) [Compound 833]		< 100 nM			A (percent of modification of PIK3CA protein ≥75%)
C=CC(=O)N1CCc2nc(-c3nc(-c4ccc5nn(C)cc5c4)c4ccsc4c3-c3c(F)cc(F)cc3OCCO)sc2C1 [Compound 1053]	< 100 nM			A (percent of modification of PIK3CA protein ≥75%)	
C=CC(=O)N1CCc2nc(-c3nc(-c4cnn(CCO)c4)c4ccsc4c3-c3ccc(F)cc3OCCOC)sc2C1 [Compound 126]		< 100 nM			A (percent of modification of PIK3CA protein ≥75%)
C=CC(=O)N1Cc2cc(-c3nc(-c4cnn(C(C)(C)CO)c4)c4ccsc4c3-c3c(F)cc(F)cc3OCCOC)nn2C[C@H]1C [Compound 738]		< 100 nM			A (percent of modification of PIK3CA protein ≥75%)
C=CC(=O)N1CCn2nc(-c3nc(-c4cncc(C#N)c4)c4ccsc4c3-c3ccc(F)cc3OCCOC)cc2C1 [Compound 202]		< 100 nM			A (percent of modification of PIK3CA protein ≥75%)

The next lines start with results.

IC50 (pAKT in BT474 cells; Compounds 1000-1279)	IC50 (pAKT in BT474 cells; Compounds 10-999)	IC50 (pAKT in BT474 cells; [4])	Compound	% of modification [1, 2]	% of modification [1, 3]
	< 100 nM		C=CC(=O)N1Cc2cc(-c3nc(-c4ccc5nn(C)cc5c4)c4ccsc4c3-c3c(F)cc(F)cc3OC)nn2[C@@H](C)C1 [Compound 847]		A (percent of modification of PIK3CA protein ≥75%)
< 100 nM			C=CC(=O)N1CCn2nc(-c3nc(-c4cccc(C(=O)N5CC(N(C)C)C5)c4)c4ccsc4c3-c3c(F)cc(F)cc3OCCOC)cc2C1C (stereo not drawn) [Compound 1142]	A (percent of modification of PIK3CA protein ≥75%)	
< 100 nM			C=CC(=O)N1CCn2nc(-c3nc(-c4cnc(N(C)C)nc4)c4ccsc4c3-c3c(F)cc(F)cc3OCCOC)cc2C1C (stereo not drawn) [Compound 1037]	A (percent of modification of PIK3CA protein ≥75%)	
	< 100 nM		C=CC(=O)N1CCn2nc(-c3nc(-c4ccnc(N)c4)c4ccsc4c3-c3ccc(F)cc3OCCOC)nc2C1 [Compound 186]		A (percent of modification of PIK3CA protein ≥75%)
		< 100 nM	C=CC(=O)N1CCn2nc(-c3nc(-c4ccc5c(c4)CCNC5=O)c4ccsc4c3-c3c(F)cc(F)cc3OCCO)cc2[C@H]1C [Compound 876, 6-((S)-6-((R)-5-acryloyl-4-methyl-4,5,6,7-tetrahydropyrazolo[1,5-a]pyrazin-2-yl)-7-(2,4-difluoro-6-(2-hydroxyethoxy)phenyl)thieno[3,2-c]pyridin-4-yl)-3,4-dihydroisoquinolin-1(2H)-one]	A (percent of modification of PIK3CA protein ≥75%)	
	100 to 1000 nM		C=CC(=O)N1CCC(n2cc(-c3nc(-c4cnn5c4NCCC5)c4ccsc4c3-c3ccc(F)cc3OCCOC)cn2)CC1 [Compound 68]		A (percent of modification of PIK3CA protein ≥75%)
		< 100 nM	C=CC(=O)N1CCc2ncc(-c3nc(-c4ccc5c(c4)CCNC5)c4ccsc4c3-c3ccc(F)cc3OCCOC)cc2C1 [Compound 62, 1-[3-[7-[4-fluoro-2-(2-methoxyethoxy)phenyl]-4-(1,2,3,4-tetrahydroisoquinolin-6-yl)thieno[3,2-c]pyridin-6-yl]-7,8-dihydro-5H-1,6-naphthyridin-6-yl]prop-2-en-1-one]		A (percent of modification of PIK3CA protein ≥75%)
	100 to 1000 nM		C=CC(=O)N1CC[C@@H](n2ccc(-c3nc(-c4cnn(C)c4)c4ccsc4c3-c3ccc(F)cc3OC(C)C)n2)C1 [Compound 329]		A (percent of modification of PIK3CA protein ≥75%)
	100 to 1000 nM		C=CC(=O)N1CC[C@H](n2cc(-c3nc(-c4ccc5c(c4)CCNC5)c4ccsc4c3-c3ccc(F)cc3OCC3CCNC(=O)C3)ccc2=O)C1 (stereo partly drawn) [Compound 214]		A (percent of modification of PIK3CA protein ≥75%)
	< 100 nM		C=CC(=O)N1CCn2nc(-c3nc(-c4ccc5c(c4)CCN(C)C5)c4ccsc4c3-c3c(F)cc(F)cc3OCCO)cc2C1C (stereo not drawn) [Compound 537]		A (percent of modification of PIK3CA protein ≥75%)
100 to 1000 nM			COCCOc1cc(F)cc(F)c1-c1c(-c2cc3n(n2)CCN(C#N)C3C)nc(-c2ccc3c(cnn3C)c2)c2ccsc12 (stereo not drawn) [Compound 1233]	D (percent of modification <25%)	
